The values below come from patent US20240124483A1, “Methods for the Treatment of Fibrotic Disease” (SHY Therapeutics, LLC, priority 2021, published 2024).

One assay deals with ERK1/2 phosphorylation. Nature of the assay: Western ERK1/2 Cell-Based Phosphorylation Assay. To be noted: Homo sapiens, PANC-1, 6 hours, EGF 1.5 ng/ml, read-out: % inh of ERK1/2 phosphorylation in PANC-1. The method, then: Cell lines: Human tumor-derived pancreatic cancer cell line Panc-1 was purchased from American Type Culture Collection and grown in complete DMEM-High Glucose, supplemented with penicillin (100 U/mL), streptomycin (100 μg/mL), and 10% heat-inactivated FBS at 37° C. in a humidified incubator with 5% CO2.
(§1) Method: Cells were plated at 350000 cells/well density in a 12-well plate, allowed 3 hours to adhere to the plate, then starved in the appropriate medium in the presence of 0.5% FBS overnight. The small molecules to be tested were added to the cells in the final concentration of 10 μM in the presence of 0.3% DMSO for 6 hours incubation at 37° C. For IC50 value determination, serial dilutions of compounds were added to cells under the same conditions. Next, cells were stimulated with 1.5 ng/ml EGF for 15 minutes then cells were lysed with lysis buffer containing 1% Triton X-100, EDTA, and Halt™ Protease & Phosphatase Inhibitor Cocktail (Thermo Scientific). Protein concentration was assessed by BCA protein assay (Thermo Scientific). Phosphorylation level of ERK1/2 was determined by western blot.
(§2) Western blot protocol: Equal amounts of protein (15-50 μg) were separated by SDS-PAGE and transferred to nitrocellulose membranes (Invitrogen by Thermo Fisher Scientific). The membrane was stained with Ponceau S Stain (Boston BioProducts) to verify uniform protein loading. Membranes were blocked with 10% milk and phosphorylation levels of ERK1/2 were assessed by incubating overnight at 4° C. with anti-phospho-p44/42 (Thr202/Tyr204) antibody (Cell Signaling) followed by HRP-conjugated secondary antibody (Jackson Immunoresearch, West Grove, PA). Bands were incubated in Amersham ECL Prime Western Blotting Detection Reagent (GE Healthcare) and visualized using the ChemiDoc MP imaging system (Bio-Rad).

Another assay deals with AKT phosphorylation. Description: Western AKT Cell-Based Phosphorylation Assay. The following applies: Homo sapiens, PANC-1, 6 hours, EGF 1.5 ng/ml, read-out: % inh of AKT phosphorylation in PANC-1. As to the method:
Human tumor-derived pancreatic cancer cell line Panc-1 was purchased from American Type Culture Collection and grown in complete DMEM-High Glucose supplemented with penicillin (100 U/mL), streptomycin (100 μg/mL), and 10% heat-inactivated FBS at 37° C. in a humidified incubator with 5% CO2.
as §1, with “C.” for “C. For IC50 value determination, serial dilutions of compounds were added to cells under the same conditions.”, “Akt” for “ERK1/2”
as §2, with “Akt” for “ERK1/2”, “anti-phospho-Akt (Ser473)” for “anti-phospho-p44/42 (Thr202/Tyr204)”

A further assay has as its target KRas Q61H mutant (Homo sapiens (Human), UniProt P01116, Q61H). Nature of the assay: Ras GTP Binding Domain Inhibition Assay, KRas Q61H mutant. To be noted: 20 μM. The method, then: A Ras Superfamily Activity Assay (as disclosed in International Application No. PCT/US2018/038613, filed Jun. 20, 2018, which is incorporated by reference in its entirety) was used as a specific assay to evaluate compounds against the following for the following Ras Superfamily proteins: KRas wild type, KRas Q61H mutant, KRas G12C mutant, KRas G12D mutant, Rac-1, and Rho-A.
Buffer-I: • 25 mM Tris-HCl, pH 7.4 • 27 mM KCl • 137 mM NaCl • 1 mM MgCl2 • 1 mM DTT
Buffer-II: • 50 mM Tris-HCl, pH 7.0 • 1 mM MgCl2 • 1 mM DTT
The small GTPases proteins: KRas wild type. KRas Q61H mutant, KRas G12C mutant, KRas G12D mutants, Rac-1, and Rho-A were expressed as His-tagged proteins. In addition, the Guanosine nucleotide Exchange Factor (GEF) Sos protein (residues 556-1049) was expressed as a His-tagged protein. In cells, the guanine nucleotide exchange factor Sos protein promotes activation of Ras proteins by stimulating an exchange of GDP for GTP. The inclusion of Sos to the Ras GTP binding domain inhibition assay may be considered as an alternative representation of physiological cellular conditions for evaluating the inhibitory activity of some of the tested small molecules.
For the assay, all purified small GTPases proteins were diluted in Buffer-I or Buffer-II to a final concentration of 10-30 μg/mL. 200 μL of each diluted protein was added to a nickel-coated 96-well plate and incubated overnight at 4° C. Then the protein solution was discarded and 200 μL of Buffer-I or Buffer-II was added to each well in the presence of 1% DMSO. Compounds to be tested were added to the protein-coated wells at final concentration of 20 μM, and incubated for 3 hours at room temperature with and without 10-30 μg/mL of Sos added to the final hour of the incubation. When performing IC50 measurements a serial dilution of all tested concentrations was added. Then Cy3-GTP or Cy5-GTP was added to each well to a final concentration of 100 nM. The labeled GTP was incubated for 45 minutes at room temperature. Following GTP incubation, wells were washed 3× in Buffer-I or Buffer-II and 200 μL of Buffer-I or Buffer-II was added to each well. Following washes, the amount of bound labeled-GTP was measured using a SpectraMax M3 (Molecular Devices).

Another assay relates to MiaPaca2. Description: MiaPaca2 proliferation. The following applies: Homo sapiens, MIA PaCa-2; for inhibition at 10 µM: read-out: % inh of proliferation in MiaPaca2. Format: cell-based.
Setting [1] is: + SOS, read-out: KRas Q61H mutant + SOS: % inh.
Setting [2] is: without SOS, read-out: KRas Q61H mutant: % inh.

Structures are written as SMILES. Where two headings read alike, the source gives them in different places.

Sequence of KRas Q61H mutant (P01116 other isoform, or with tags, fused parts or gaps Q61H): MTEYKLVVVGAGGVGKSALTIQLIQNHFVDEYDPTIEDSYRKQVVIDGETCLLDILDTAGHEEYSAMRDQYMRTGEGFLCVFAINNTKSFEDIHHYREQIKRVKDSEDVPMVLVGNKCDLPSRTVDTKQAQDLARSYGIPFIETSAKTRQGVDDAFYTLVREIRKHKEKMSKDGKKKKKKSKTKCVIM

For `COCCOc1nc(-c2nccn2C)nc2sc(-c3ccn(C(C)C)n3)c(C)c12` [Compound 30, 6-(1-Isopropyl-1H-pyrazol-3-yl)-4-(2-methoxyethoxy)-5-methyl-2-(1-methyl-1H-imidazol-2-yl)thieno[2,3-d]pyrimidine], the inhibition at 10 µM with ERK1/2 phosphorylation was 0%; in the assay on AKT phosphorylation, 0%; with MiaPaca2 it was 1 to 25%. Besides, the inhibition at 20 µM is 1 to 25% at KRas Q61H mutant (setting [1]) and 0% on KRas Q61H mutant (setting [2]). The compound also displayed an IC50 with MiaPaca2 greater than 10 µM.
As for `COc1cc(Cn2c(-c3nccn3C)nc3sc(-c4ccn(C(C)C)n4)c(C)c3c2=O)ncn1` [Compound 35, 6-(1-Isopropyl-1H-pyrazol-3-yl)-3-((6-methoxypyrimidin-4-yl)methyl)-5-methyl-2-(1-methyl-1H-imidazol-2-yl)thieno[2,3-d]pyrimidin-4(3H)-one], the inhibition at 10 µM in the assay on ERK1/2 phosphorylation, with AKT phosphorylation and with MiaPaca2 was 0% each time. The inhibition at 20 µM on KRas Q61H mutant (setting [1]) and at KRas Q61H mutant (setting [2]) was 1 to 25% in each case. In the assay on MiaPaca2, this compound displayed an IC50 greater than 10 µM.
In the case of `COc1cccc(-c2sc3nc(-c4nccn4C)nc(N[C@@H]4CC[C@@H](OC)C4)c3c2C)c1F` (racemic) [Compound 43, rac-6-(2-Fluoro-3-methoxyphenyl)-N-((1R,3R)-3-methoxycyclopentyl)-5-methyl-2-(1-methyl-1H-imidazol-2-yl)thieno[2,3-d]pyrimidin-4-amine], the inhibition at 10 µM is 46 to 75% with ERK1/2 phosphorylation, 0% with AKT phosphorylation and 46 to 75% in the assay with MiaPaca2. Also, the inhibition at 20 µM was 76 to 100% on KRas Q61H mutant (setting [1]) and 26 to 45% on KRas Q61H mutant (setting [2]). This compound also yielded an IC50 in the assay with MiaPaca2 of 5 to 10 µM.
Consider `CO[C@H]1C[C@H](CNc2nc(-c3nccn3C)nc3sc(-c4ccn(C(C)C)n4)c(C)c23)C1` [Compound 16, 6-(1-Isopropyl-1H-pyrazol-3-yl)-N-(((1r,3r)-3-methoxycyclobutyl)methyl)-5-methyl-2-(1-methyl-1H-imidazol-2-yl)thieno[2,3-d]pyrimidin-4-amine], for which the inhibition at 10 µM was 76 to 100% in the assay with ERK1/2 phosphorylation, 0% in the assay with AKT phosphorylation and 76 to 100% in the assay with MiaPaca2. For the same compound, the inhibition at 20 µM on KRas Q61H mutant (setting [1]) and at KRas Q61H mutant (setting [2]) was 46 to 75% throughout. The same compound yielded a half-maximal inhibitory concentration (IC50) in the assay with MiaPaca2 of less than 1 µM.
Take `COCCOCCNc1nc(-c2nccn2C)nc2sc(-c3ccn(C(C)C)n3)c(C)c12` [Compound 21, 6-(1-Isopropyl-1H-pyrazol-3-yl)-N-(2-(2-methoxyethoxy)ethyl)-5-methyl-2-(1-methyl-1H-imidazol-2-yl)thieno[2,3-d]pyrimidin-4-amine]: the inhibition at 10 µM in the assay with ERK1/2 phosphorylation was 0%; with AKT phosphorylation it was 1 to 25%; with MiaPaca2, 76 to 100%. Moreover, the inhibition at 20 µM at KRas Q61H mutant (setting [1]) and at KRas Q61H mutant (setting [2]) was 76 to 100% each time. The IC50 in the assay with MiaPaca2 was 5 to 10 µM.
Turning to `COc1cc(Nc2nc(-c3nccn3C)nc3sc(-c4ccn(C(C)C)n4)c(C)c23)ncn1` [Compound 19, 6-(1-Isopropyl-1H-pyrazol-3-yl)-N-(6-methoxypyrimidin-4-yl)-5-methyl-2-(1-methyl-1H-imidazol-2-yl)thieno[2,3-d]pyrimidin-4-amine], the inhibition at 10 µM in the assay on ERK1/2 phosphorylation, in the assay with AKT phosphorylation and with MiaPaca2 was 76 to 100% in each case. The inhibition at 20 µM at KRas Q61H mutant (setting [1]) and on KRas Q61H mutant (setting [2]) was 76 to 100% each time. The IC50 in the assay with MiaPaca2 fell in the range of 1 to 4.99 µM.
Take `COc1nccc(-c2sc3nc(-c4nccn4C)nc(N[C@H]4C[C@H](OC)C4)c3c2-c2ccccc2)c1F` [Compound 45, 6-(3-Fluoro-2-methoxypyridin-4-yl)-N-((1r,3r)-3-methoxycyclobutyl)-2-(1-methyl-1H-imidazol-2-yl)-5-phenylthieno[2,3-d]pyrimidin-4-amine]: the inhibition at 10 µM in the assay with ERK1/2 phosphorylation, in the assay with AKT phosphorylation and with MiaPaca2 was 76 to 100% throughout. The figures for the inhibition at 20 µM at KRas Q61H mutant (setting [1]) and on KRas Q61H mutant (setting [2]) were 76 to 100% and 46 to 75%, respectively. For the same compound, the IC50 with MiaPaca2 was 1 to 4.99 µM.
For the compound `COCCCCn1c(-c2nccn2C)nc2sc(-c3ccn(C(C)C)n3)c(C)c2c1=O` [Compound 33, 6-(1-Isopropyl-1H-pyrazol-3-yl)-3-(4-methoxybutyl)-5-methyl-2-(1-methyl-1H-imidazol-2-yl)thieno[2,3-d]pyrimidin-4(3H)-one], the inhibition at 10 µM in the assay on ERK1/2 phosphorylation, in the assay with AKT phosphorylation and in the assay on MiaPaca2 was 0% in each case. Also, the inhibition at 20 µM on KRas Q61H mutant (setting [1]) was 1 to 25%; on KRas Q61H mutant (setting [2]), 0%. Also, the half-inhibitory concentration (IC50) with MiaPaca2 was greater than 10 µM.
Regarding `COCCCOc1nc(-c2nccn2C)nc2sc(-c3ccn(C(C)C)n3)c(C)c12` [Compound 32, 6-(1-Isopropyl-1H-pyrazol-3-yl)-4-(3-methoxypropoxy)-5-methyl-2-(1-methyl-1H-imidazol-2-yl)thieno[2,3-d]pyrimidine], the inhibition at 10 µM with ERK1/2 phosphorylation is 0%; in the assay on AKT phosphorylation it was 1 to 25%; in the assay on MiaPaca2, 76 to 100%. Further, the inhibition at 20 µM on KRas Q61H mutant (setting [1]) and on KRas Q61H mutant (setting [2]) was 46 to 75% in each case. For the same compound, in the assay on MiaPaca2, the IC50 was in the range of 5 to 10 µM.
Regarding `Cc1c(-c2ccn(C(C)C)n2)sc2nc(-c3nccn3C)nc(NCC3CN(C)CCO3)c12` (racemic) [Compound 25, rac-6-(1-Isopropyl-1H-pyrazol-3-yl)-5-methyl-2-(1-methyl-1H-imidazol-2-yl)-N-((4-methylmorpholin-2-yl)methyl)thieno[2,3-d]pyrimidin-4-amine], the inhibition at 10 µM is 0% in the assay on ERK1/2 phosphorylation, 1 to 25% with AKT phosphorylation and 46 to 75% in the assay on MiaPaca2. In addition, the inhibition at 20 µM on KRas Q61H mutant (setting [1]) and on KRas Q61H mutant (setting [2]) was 76 to 100% in each case. The compound also returned an IC50 in the assay with MiaPaca2 of 5 to 10 µM.
